Results: the supplement of paper PMC10307832

Tests used:
Assay in all cases: relative viability (nuclei count vs DMSO), 5 days (fraction); higher = more cells survive
[1] = test system: NCI-H2170
Outline: (§1)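 A single step with final 0.05% Triton X-100, 1% formaldehyde and 1 ug/ml Hoechst fixed the cells and stained nuclei 5 days after treatment. Lung cancer cell lines in 1536-well plates had been treated by pin tool the day after seeding with one drug alone or a fixed anchor-drug dose plus five library-drug doses (not always all listed) in √10 steps, and nuclei were counted on 4× images. Relative viability is the ratio of nuclei in treated wells to nuclei in vehicle wells, taken as the median of duplicate plates.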

[2] = test system: NCI-H1793
Outline: as §1

[3] = test system: NCI-H1734
Outline: as §1

[4] = test system: NCI-H2009
Outline: as §1

[5] = test system: EKVX
Outline: as §1

[6] = test system: NCI-H1395
Outline: as §1

[7] = test system: HARA
Outline: as §1

[8] = test system: NCI-H2347
Outline: as §1

[9] = test system: NCI-H647
Outline: as §1

[10] = test system: NCI-H2228
Outline: as §1

[11] = test system: HOP-62
Outline: as §1

[12] = test system: UMC-11
Outline: as §1

[13] = test system: NCI-H1355
Outline: as §1

[14] = test system: COR-L 105
Outline: as §1

[15] = test system: PC-14
Outline: as §1

[16] = test system: NCI-H1993
Outline: as §1

[17] = test system: COR-L23
Outline: as §1

[18] = test system: NCI-H358
Outline: as §1

[19] = test system: NCI-H838
Outline: as §1

[20] = test system: SK-MES-1
Outline: as §1

[21] = test system: NCI-H1755
Outline: as §1

[22] = test system: HCC-15
Outline: as §1

`Oc1nc(-c2ccc(C(F)(F)F)cc2)nc2c1CSCC2` [XAV939] + CS(=O)(=O)N1CCN(Cc2cc3nc(-c4cccc5[nH]ncc45)nc(N4CCOCC4)c3s2)CC1 [Pictilisib] (partner 1 µM) gave a relative viability ([1]; first compound 0.08 µM) of 0.298, a relative viability ([1]; first compound 0.253 µM) of 0.277 and a relative viability ([1]; first compound 0.8 µM) of 0.269. It also gave a relative viability ([1]; first compound 2.53 µM) of 0.26, a relative viability ([2]; first compound 0.08 µM) of 0.344 and a relative viability ([2]; first compound 0.253 µM) of 0.308. The relative viability ([2]; first compound 0.8 µM) was 0.308, the relative viability ([2]; first compound 2.53 µM) was 0.363 and the relative viability ([3]; first compound 0.08 µM) was 0.488. For the same compound, the relative viability ([3]; first compound 0.253 µM) was 0.418, the relative viability ([3]; first compound 0.8 µM) was 0.371 and the relative viability ([3]; first compound 2.53 µM) was 0.383. It also gave a relative viability ([4]; first compound 0.08 µM) of 0.878, a relative viability ([4]; first compound 0.253 µM) of 0.718 and a relative viability ([4]; first compound 0.8 µM) of 0.67. The relative viability ([4]; first compound 2.53 µM) was 0.511, the relative viability ([5]; first compound 0.08 µM) was 0.413 and the relative viability ([5]; first compound 0.253 µM) was 0.301. It also gave a relative viability ([5]; first compound 0.8 µM) of 0.377, a relative viability ([5]; first compound 2.53 µM) of 0.24 and a relative viability ([6]; first compound 0.08 µM) of 0.685. It also gave a relative viability ([6]; first compound 0.253 µM) of 0.58, a relative viability ([6]; first compound 0.8 µM) of 0.597 and a relative viability ([6]; first compound 2.53 µM) of 0.675. The relative viability ([7]; first compound 0.08 µM) was 0.477, the relative viability ([7]; first compound 0.253 µM) was 0.386 and the relative viability ([7]; first compound 0.8 µM) was 0.345. It also gave a relative viability ([7]; first compound 2.53 µM) of 0.394, a relative viability ([8]; first compound 0.08 µM) of 0.681 and a relative viability ([8]; first compound 0.253 µM) of 0.636. It also gave a relative viability ([8]; first compound 0.8 µM) of 0.418, a relative viability ([8]; first compound 2.53 µM) of 0.523 and a relative viability ([9]; first compound 0.08 µM) of 0.471. For the same compound, the relative viability ([9]; first compound 0.253 µM) was 0.378, the relative viability ([9]; first compound 0.8 µM) was 0.381 and the relative viability ([9]; first compound 2.53 µM) was 0.51. For the same compound, the relative viability ([10]; first compound 0.08 µM) was 0.247, the relative viability ([10]; first compound 0.253 µM) was 0.304 and the relative viability ([10]; first compound 0.8 µM) was 0.253. It also gave a relative viability ([10]; first compound 2.53 µM) of 0.382, a relative viability ([11]; first compound 0.08 µM) of 1.04 and a relative viability ([11]; first compound 0.253 µM) of 0.62. For the same compound, the relative viability ([11]; first compound 0.8 µM) was 0.596, the relative viability ([11]; first compound 2.53 µM) was 0.672 and the relative viability ([12]; first compound 0.08 µM) was 0.733. For the same compound, the relative viability ([12]; first compound 0.8 µM) was 0.752, the relative viability ([12]; first compound 2.53 µM) was 0.712 and the relative viability ([13]; first compound 0.08 µM) was 0.414. The relative viability ([13]; first compound 0.253 µM) was 0.374, the relative viability ([13]; first compound 0.8 µM) was 0.387 and the relative viability ([13]; first compound 2.53 µM) was 0.236. For the same compound, the relative viability ([14]; first compound 0.08 µM) was 0.371, the relative viability ([14]; first compound 0.253 µM) was 0.304 and the relative viability ([14]; first compound 0.8 µM) was 0.349. It also gave a relative viability ([14]; first compound 2.53 µM) of 0.347, a relative viability ([15]; first compound 0.08 µM) of 0.859 and a relative viability ([15]; first compound 0.253 µM) of 0.662. It also gave a relative viability ([15]; first compound 0.8 µM) of 0.767, a relative viability ([15]; first compound 2.53 µM) of 0.386 and a relative viability ([16]; first compound 0.8 µM) of 0.911. It also gave a relative viability ([16]; first compound 2.53 µM) of 0.7, a relative viability ([17]; first compound 0.08 µM) of 1.05 and a relative viability ([17]; first compound 0.253 µM) of 0.768. It also gave a relative viability ([17]; first compound 0.8 µM) of 0.757, a relative viability ([17]; first compound 2.53 µM) of 0.564 and a relative viability ([18]; first compound 0.08 µM) of 0.306. The relative viability ([18]; first compound 0.253 µM) was 0.232, the relative viability ([18]; first compound 0.8 µM) was 0.336 and the relative viability ([18]; first compound 2.53 µM) was 0.277. It also gave a relative viability ([19]; first compound 0.08 µM) of 0.441, a relative viability ([19]; first compound 0.253 µM) of 0.374 and a relative viability ([19]; first compound 0.8 µM) of 0.343. It also gave a relative viability ([19]; first compound 2.53 µM) of 0.246, a relative viability ([20]; first compound 0.08 µM) of 0.401 and a relative viability ([20]; first compound 0.253 µM) of 0.327. It also gave a relative viability ([20]; first compound 0.8 µM) of 0.415, a relative viability ([20]; first compound 2.53 µM) of 0.32 and a relative viability ([21]; first compound 0.08 µM) of 0.456. For the same compound, the relative viability ([21]; first compound 0.253 µM) was 0.353, the relative viability ([21]; first compound 0.8 µM) was 0.413 and the relative viability ([21]; first compound 2.53 µM) was 0.388. For the same compound, the relative viability ([22]; first compound 0.08 µM) was 0.858, the relative viability ([22]; first compound 0.253 µM) was 0.632 and the relative viability ([22]; first compound 0.8 µM) was 0.736. For the same compound, the relative viability ([22]; first compound 2.53 µM) was 0.755.
`Oc1nc(-c2ccc(C(F)(F)F)cc2)nc2c1CSCC2` [XAV939] + Cc1nc(NC(=O)N2CCC[C@H]2C(N)=O)sc1-c1ccnc(C(C)(C)C(F)(F)F)c1 [Alpelisib] (partner 2 µM) showed a relative viability ([1]; first compound 0.08 µM) of 0.855, a relative viability ([1]; first compound 0.253 µM) of 0.612 and a relative viability ([1]; first compound 0.8 µM) of 0.654. It also gave a relative viability ([1]; first compound 2.53 µM) of 0.578, a relative viability ([2]; first compound 0.08 µM) of 0.589 and a relative viability ([2]; first compound 0.253 µM) of 0.59. The relative viability ([2]; first compound 0.8 µM) was 0.697, the relative viability ([2]; first compound 2.53 µM) was 0.708 and the relative viability ([3]; first compound 0.08 µM) was 0.713. For the same compound, the relative viability ([3]; first compound 0.253 µM) was 0.64, the relative viability ([3]; first compound 0.8 µM) was 0.634 and the relative viability ([3]; first compound 2.53 µM) was 0.606. It also gave a relative viability ([4]; first compound 0.08 µM) of 1.22, a relative viability ([4]; first compound 0.253 µM) of 1.2 and a relative viability ([4]; first compound 0.8 µM) of 1.12. For the same compound, the relative viability ([4]; first compound 2.53 µM) was 0.987, the relative viability ([5]; first compound 0.08 µM) was 0.825 and the relative viability ([5]; first compound 0.253 µM) was 0.67. It also gave a relative viability ([5]; first compound 0.8 µM) of 0.731, a relative viability ([5]; first compound 2.53 µM) of 0.548 and a relative viability ([6]; first compound 0.08 µM) of 1.09. The relative viability ([6]; first compound 0.253 µM) was 1.03, the relative viability ([6]; first compound 0.8 µM) was 1.08 and the relative viability ([6]; first compound 2.53 µM) was 1.06. For the same compound, the relative viability ([7]; first compound 0.08 µM) was 1.02, the relative viability ([7]; first compound 0.253 µM) was 0.643 and the relative viability ([7]; first compound 0.8 µM) was 0.842. For the same compound, the relative viability ([7]; first compound 2.53 µM) was 0.709, the relative viability ([8]; first compound 0.08 µM) was 1.08 and the relative viability ([8]; first compound 0.253 µM) was 0.97. It also gave a relative viability ([8]; first compound 0.8 µM) of 1.05, a relative viability ([8]; first compound 2.53 µM) of 0.926 and a relative viability ([9]; first compound 0.08 µM) of 1.25. It also gave a relative viability ([9]; first compound 0.253 µM) of 1, a relative viability ([9]; first compound 0.8 µM) of 1.06 and a relative viability ([9]; first compound 2.53 µM) of 0.922. The relative viability ([10]; first compound 0.08 µM) was 0.708, the relative viability ([10]; first compound 0.253 µM) was 0.757 and the relative viability ([10]; first compound 0.8 µM) was 0.536. The relative viability ([10]; first compound 2.53 µM) was 0.463, the relative viability ([11]; first compound 0.08 µM) was 1.02 and the relative viability ([11]; first compound 0.253 µM) was 0.54. The relative viability ([11]; first compound 0.8 µM) was 0.673, the relative viability ([11]; first compound 2.53 µM) was 0.69 and the relative viability ([12]; first compound 0.08 µM) was 1.2. It also gave a relative viability ([12]; first compound 0.8 µM) of 0.971, a relative viability ([12]; first compound 2.53 µM) of 0.64 and a relative viability ([13]; first compound 0.08 µM) of 0.78. It also gave a relative viability ([13]; first compound 0.253 µM) of 0.654, a relative viability ([13]; first compound 0.8 µM) of 0.75 and a relative viability ([13]; first compound 2.53 µM) of 0.489. For the same compound, the relative viability ([14]; first compound 0.08 µM) was 1.14, the relative viability ([14]; first compound 0.253 µM) was 0.867 and the relative viability ([14]; first compound 0.8 µM) was 0.952. For the same compound, the relative viability ([14]; first compound 2.53 µM) was 0.576, the relative viability ([15]; first compound 0.08 µM) was 1.03 and the relative viability ([15]; first compound 0.253 µM) was 0.829. It also gave a relative viability ([15]; first compound 0.8 µM) of 0.906, a relative viability ([15]; first compound 2.53 µM) of 0.796 and a relative viability ([16]; first compound 0.8 µM) of 0.635. It also gave a relative viability ([16]; first compound 2.53 µM) of 0.633, a relative viability ([17]; first compound 0.08 µM) of 1 and a relative viability ([17]; first compound 0.253 µM) of 0.73. It also gave a relative viability ([17]; first compound 0.8 µM) of 0.772, a relative viability ([17]; first compound 2.53 µM) of 0.576 and a relative viability ([18]; first compound 0.08 µM) of 0.815. For the same compound, the relative viability ([18]; first compound 0.253 µM) was 0.671, the relative viability ([18]; first compound 0.8 µM) was 0.915 and the relative viability ([18]; first compound 2.53 µM) was 0.591. It also gave a relative viability ([19]; first compound 0.08 µM) of 1.08, a relative viability ([19]; first compound 0.253 µM) of 0.849 and a relative viability ([19]; first compound 0.8 µM) of 0.909. It also gave a relative viability ([19]; first compound 2.53 µM) of 0.604, a relative viability ([20]; first compound 0.08 µM) of 0.994 and a relative viability ([20]; first compound 0.253 µM) of 0.912. For the same compound, the relative viability ([20]; first compound 0.8 µM) was 0.911, the relative viability ([20]; first compound 2.53 µM) was 0.757 and the relative viability ([21]; first compound 0.08 µM) was 0.895. The relative viability ([21]; first compound 0.253 µM) was 0.808, the relative viability ([21]; first compound 0.8 µM) was 0.888 and the relative viability ([21]; first compound 2.53 µM) was 0.735. It also gave a relative viability ([22]; first compound 0.08 µM) of 1, a relative viability ([22]; first compound 0.253 µM) of 0.939 and a relative viability ([22]; first compound 0.8 µM) of 0.925. The relative viability ([22]; first compound 2.53 µM) was 0.946.
